Measurements from PubChem BioAssay AID2202554 (NIEHS Division of Translational Toxicology (DTT)).
Results filed as inconclusive are left out. Active and inactive are the calls of the source. No rule for the calls is given here.

These molecules were tested on S. typhimurium/E. coli reverse mutation, colony counts (assay: Bacterial reverse mutation test (aka Ames test) summary data).
Summary of the method: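 Revertant colony counts on plates, compared with untreated controls, after about two days of growth. Exposure with or without liver S9 (rat/hamster/mouse), dose range per strain, 20-min 37° C preincubation or direct plate incorporation. Strains: his⁻ Salmonella, trp⁻ E. coli WP2 uvrA pKM101.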

| SMILES | outcome |
| --- | --- |
| [CH3][Sn]([CH3])([Cl])[Cl] | inactive; negative |
| CCN | inactive; negative |
| CCCCOCCO | inactive; negative |
| Nc1ncc([N+](=O)[O-])s1 | active; positive |
| CNC[C@H](O)c1ccc(O)c(O)c1 | active; weakly positive |
| COc1cc([C@H]2Oc3cc([C@H]4Oc5cc(O)cc(O)c5C(=O)[C@@H]4O)ccc3O[C@@H]2CO)ccc1O | inactive; negative |
| c1ccc(P(c2ccccc2)c2ccccc2)cc1 | inactive; negative |
| CCC(C)Nc1ccc(NC(C)CC)cc1 (stereo unspecified) | inactive; negative |
| C=C(C)C(=O)OCCCCCCCCCC | inactive; negative |
| ClC1=C(Cl)[C@]2(Cl)[C@@H]3[C@H]4C[C@H]([C@@H]5O[C@H]45)[C@@H]3[C@@]1(Cl)C2(Cl)Cl | inactive; negative |
| Cc1ccc(N=Nc2c(O)c(S(=O)(=O)O)cc3ccc(S(=O)(=O)O)cc23)c(C)c1 | active; weakly positive |
| CC(=O)c1ccccc1[N+](=O)[O-] | inactive; negative |
| CCCC(=O)OCC | inactive; negative |
| CCN(CC)CCCC(C)Nc1c2ccc(Cl)cc2nc2ccc(OC)cc12 (stereo unspecified) | active; positive |
| Cc1c(N)cccc1[N+](=O)[O-] | active; positive |
| CN[C@@H]1[C@H](O[C@H]2[C@H](O[C@H]3[C@H](O)[C@@H](O)[C@H](NC(=N)N)[C@@H](O)[C@@H]3N=C(N)N)O[C@@H](C)[C@]2(O)C=O)O[C@@H](CO)[C@H](O)[C@H]1O | active; weakly positive |
| ICCc1ccccc1 | inactive; negative |
| Nc1cc(S(=O)(=O)[O-])cc2cc(S(=O)(=O)[O-])c(N=Nc3ccc(-c4ccc(N=Nc5c(S(=O)(=O)[O-])cc6cc(S(=O)(=O)[O-])cc(N)c6c5[O-])c([O-])c4)cc3[O-])c([O-])c12.[Cu+2].[Cu+2].[Na+].[Na+].[Na+].[Na+] | inactive; negative |
| CC1=CC(=O)CC(C)(C)C1 | inactive; negative |
| NCCc1ccc(O)c(O)c1 | active; weakly positive |
| Nc1c(N=Nc2ccc(-c3ccc(N=Nc4ccc(O)cc4)cc3)cc2)c(S(=O)(=O)O)cc2cc(S(=O)(=O)O)c(N=Nc3ccccc3)c(O)c12 | active; positive |
| CC(C)N | inactive; negative |
| O=c1[nH]c(=O)[nH]c(=O)[nH]1 | inactive; negative |
| C=CC(C)(O)CCC=C(C)C (stereo unspecified) | inactive; negative |
| CCCCO | inactive; negative |

| SMILES | outcome |
| --- | --- |
| C[C@](N)(Cc1ccc(O)c(O)c1)C(=O)O | inactive; negative |
| C=C(C)C(=O)OC(C)C | inactive; negative |
| CC1CCC(C(C)CS)CC1S (stereo unspecified) | inactive; negative |
| O=C(CCl)c1ccc(Cl)cc1Cl | active; positive |
| CC1(C)CC(N=C=O)CC(C)(CN=C=O)C1 (stereo unspecified) | inactive; negative |
| Oc1cc(Cl)c(Cl)c(Cl)c1 | inactive; negative |
| c1ccc2c(c1)oc1ccccc12 | inactive; negative |
| F | inactive; negative |
| O=S(=O)(c1ccc(Cl)cc1)c1ccc(Cl)cc1 | inactive; negative |
| Nc1cc([N+](=O)[O-])cc(S(=O)(=O)O)c1O | inactive; negative |
| CC[C@H](C)COC(=O)C=Cc1ccc(N=Cc2ccc(OC)cc2)cc1 | active; positive |
| Cc1cc(Cl)ccc1O | inactive; negative |
| O=P(O)(O)Oc1c[nH]c2ccccc12 | active; positive |
| CCCC(CCC)C(=O)O | inactive; negative |
| Oc1ccccc1Cl | inactive; negative |
| C=CCOC(=O)CCCCCCCC | inactive; negative |
| c1ccc2c(c1)-c1cccc3c1c-2cc1ccccc13 | active; positive |
| CC(C)NC(C)C | inactive; negative |
| Oc1ccc(C(c2ccc(O)cc2)(C(F)(F)F)C(F)(F)F)cc1 | inactive; negative |
| Nc1ccc(-c2ccccc2)cc1 | active; positive |
| OCc1c[nH]c2ccccc12 | active; positive |
| CC(=O)C=Cc1ccco1 | inactive; negative |
| CC(CCl)OC(C)CCl (stereo unspecified) | active; positive |
| ClCC(Cl)(Cl)Cl | inactive; negative |
| CN(C)c1ccccc1 | inactive; negative |

| SMILES | outcome |
| --- | --- |
| COC(=O)C1CCC(C(=O)OC)CC1 (stereo unspecified) | active; positive |
| Nc1ccc(Oc2ccc(N)cc2)cc1 | active; positive |
| Nc1c(Oc2ccccc2)cc(O)c2c1C(=O)c1ccccc1C2=O | active; positive |
| C=CCC1(C(C)C#CCC)C(=O)N=C(O)N(C)C1=O (stereo unspecified) | inactive; negative |
| C1CN1c1nc(N2CC2)nc(N2CC2)n1 | active; positive |
| C=CCc1ccc2c(c1)OCO2 | inactive; negative |
| C=COC(C)=O | inactive; negative |
| C1COCOC1 | active; weakly positive |
| CC12CCC(CC1)C(C)(C)O2 | inactive; negative |
| C=CCCCCCC | inactive; negative |
| COc1ccccc1[N+](=O)[O-] | active; positive |
| C=CCNCC=C | inactive; negative |
| COC(=O)[C@H]1[C@H]2C[C@@H]3c4[nH]c5cc(OC)ccc5c4CCN3C[C@H]2C[C@@H](OC(=O)/C=C/c2cc(OC)c(OC)c(OC)c2)[C@@H]1OC | inactive; negative |
| COc1cc(C=O)ccc1O | inactive; negative |
| O=c1n(CC2CO2)c(=O)n(CC2CO2)c(=O)n1CC1CO1 (stereo unspecified) | active; positive |
| COc1cc2c(c3oc(=O)c4c(c13)CCC4=O)[C@@H]1C=CO[C@@H]1O2 | active; positive |
| N[C@@H](Cc1c[nH]c2ccc(O)cc12)C(=O)O | inactive; negative |
| C[C@]12CC[C@@H]3c4ccc(O)cc4CC[C@H]3[C@@H]1CC[C@@H]2O | inactive; negative |
| Clc1ccc(C(Cl)(Cl)Cl)c(Cl)c1 | active; positive |
| O=NN1CCCCC1 | active; positive |
| CN(C)c1ccc(C(=C2C=CC(=[N+](C)C)C=C2)c2ccccc2)cc1 | inactive; negative |
| CN=[N+](C)[O-] | active; weakly positive |
| CCOC(=O)C1OC1(C)c1ccccc1 (stereo unspecified) | inactive; negative |
| CSCCC=O | inactive; negative |
| COP(=S)(OC)SCn1nnc2ccccc2c1=O | active; positive |

| SMILES | outcome |
| --- | --- |
| N=C1N=C(N)c2ccccc21 | active; positive |
| O=C1OC(=O)c2c(Cl)c(Cl)c(Cl)c(Cl)c21 | inactive; negative |
| CC(C)O | inactive; negative |
| Cc1c(C(=O)O)cccc1[N+](=O)[O-] | active; positive |
| Nc1cc(Cl)cc(S(=O)(=O)O)c1O | inactive; negative |
| O=C(O)CNCP(=O)(O)O | inactive; negative |
| CCNC(=O)CC(C)=O | inactive; negative |
| Clc1c(Cl)c(Br)c2c(c1Cl)-c1nc-2nc2[n-]c(nc3nc(nc4[n-]c(n1)c1c(Cl)c(Br)c(Cl)c(Br)c41)-c1c(Cl)c(Cl)c(Br)c(Cl)c1-3)c1c(Br)c(Cl)c(Br)c(Cl)c21.[Cu+2] | active; positive |
| COc1ccc(C=O)cc1OC | inactive; negative |
| C=CCSSCCC | inactive; negative |
| NC(=O)c1ccccc1O | inactive; negative |
| COCC1CCC(CO)CC1 (stereo unspecified) | inactive; negative |
| CC(C)[N+](C)(CCOC(=O)C1c2ccccc2Oc2ccccc21)C(C)C | inactive; negative |
| Nc1ncnc2c1ncn2[C@H]1CC[C@@H](CO)O1 | active; positive |
| ClC(Br)Br | active; weakly positive |
| Cc1ccc(C)c(N)c1 | active; positive |
| Cc1ccc(OCC2CO2)cc1 (stereo unspecified) | active; positive |
| CCCCC(CC)COC(=O)CCCCC(=O)O (stereo unspecified) | inactive; negative |
| O=S1OCC2C(CO1)C1(Cl)C(Cl)=C(Cl)C2(Cl)C1(Cl)Cl (stereo unspecified) | inactive; negative |
| Nc1nc2cc(Cl)c(Cl)cc2s1 | inactive; negative |
| Cc1cccc(Br)c1 | inactive; negative |
| O=C1C=C(O)c2ccccc2C1=O | active; positive |
| Nc1nc2ccccc2[nH]1 | inactive; negative |
| Clc1ccc2c(c1)Oc1ccc(Cl)cc1O2 | inactive; negative |
| CCCCCCCC(=O)OCC(COC(=O)CCCCCCC)OC(=O)CCCCCCC | active; positive |

| SMILES | outcome |
| --- | --- |
| Oc1c(Cl)ccc(Cl)c1Cl | inactive; negative |
| CC1=CC[C@H]2C(C)=CC[C@@H](C(C)C)[C@@H]2C1 | inactive; negative |
| CCCCOP(=O)(OCCCC)Oc1ccccc1 | inactive; negative |
| Oc1cc(Cl)c(Cl)c(Cl)c1Cl | inactive; negative |
| C=CC(=O)NCCNC(=O)C=C | active; positive |
| ClCCOCOCCCl | active; positive |
| C=C1C/C(=C/C)C(=O)O[C@@H]2CCN3CC=C(COC(=O)[C@]1(C)O)[C@H]23 | active; positive |
| CCN(CC)C(=O)c1cccc(C)c1 | inactive; negative |
| [O]=[V]([OH])([OH])[OH] | inactive; negative |
| Brc1c(Br)c(Br)c(Oc2c(Br)c(Br)c(Br)c(Br)c2Br)c(Br)c1Br | inactive; negative |
| Clc1cccc(C(Cl)(Cl)Cl)n1 | active; positive |
| Oc1cccc(O)c1O | active; positive |
| C=C(C)CCl | active; weakly positive |
| CCCCCON=O | active; positive |
| O=[N+]([O-])c1ccc(NCCO)c(OCCO)c1 | active; positive |
| O=[N+]([O-])C(Br)(CO)CO | inactive; negative |
| CCCCCCCCOC(=O)c1ccccc1C(=O)OCCCCCCCC | inactive; negative |
| CCN(C(=O)N(CC)c1ccccc1)c1ccccc1 | inactive; negative |
| Cc1ccc(Br)cc1 | inactive; negative |
| BrC/C=C/CBr | active; positive |
| N[C@@H](Cc1c[nH]c2ccccc12)C(=O)O | inactive; negative |
